Patent US20250346593A1, “IMIDAZO(1,2-1)PYRIDINE DERIVATIVES AS RIPK2 INHIBITORS” (Interline Therapeutics, Inc., priority 2022, published 2025)
Where two headings read alike, the source gives them in different places.

Columns and labels:
[1] = target: GST-RIPK2 fusion protein (human RIPK2 amino acids 1-310) (Homo sapiens (Human), UniProt O43353); assay: RIPK2 binding competition assay (TR-FRET, Tracer 199)
[2] = system: NF-κB pathway (SEAP) in THP1-Dual cells; assay: THP-1 Dual cell SEAP assay (L18-MDP stimulated); type: cell-based; details: Homo sapiens, THP1-Dual, read-out: NFkB THP1 IC50
[3] = read-out: RIPK2 IC50, RIPK2 binding competition assay

GST-RIPK2 fusion protein (human RIPK2 amino acids 1-310), sequence (O43353 1-310): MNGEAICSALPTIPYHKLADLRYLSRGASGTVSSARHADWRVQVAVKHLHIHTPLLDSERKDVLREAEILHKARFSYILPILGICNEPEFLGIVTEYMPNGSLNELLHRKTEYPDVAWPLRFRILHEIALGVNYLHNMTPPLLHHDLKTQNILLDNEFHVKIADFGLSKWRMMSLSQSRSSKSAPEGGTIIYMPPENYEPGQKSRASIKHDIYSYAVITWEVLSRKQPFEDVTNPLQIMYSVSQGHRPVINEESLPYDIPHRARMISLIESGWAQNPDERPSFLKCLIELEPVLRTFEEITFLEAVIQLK

In the case of `COc1cc2ncc(-c3ccc(N)cn3)n2cc1S(=O)(=O)C(C)(C)C` [Example 71, 6-(6-(tert-butylsulfonyl)-7-methoxyimidazo[1,2-a]pyridin-3-yl)pyridin-3-amine], the IC50 [1, 3] is reported as over 20 nM and the IC50 [2] is reported as over 1000 nM.
With `COc1cn2ncc(-c3ccc(N)nc3F)c2cc1S(=O)(=O)C(C)(C)C` [Example 72, 5-(5-(tert-butylsulfonyl)-6-methoxypyrazolo[1,5-a]pyridin-3-yl)-6-fluoropyridin-2-amine] the IC50 [1, 3] was over 20 nM and the IC50 [2] was over 1000 nM.
`COc1cc2ncc(-c3cnc(N)c(F)c3)n2cc1S(=O)(=O)C(C)(C)C` [Example 73, 5-(6-(tert-butylsulfonyl)-7-methoxyimidazo[1,2-a]pyridin-3-yl)-3-fluoropyridin-2-amine] gave an IC50 [1, 3] of over 20 nM and an IC50 [2] of over 1000 nM.
For `COc1cc2ncc(-c3cc(OC)c(N)nc3F)n2cc1S(=O)(=O)C(C)(C)C` [Example 74, 5-(6-(tert-butylsulfonyl)-7-methoxyimidazo[1,2-a]pyridin-3-yl)-6-fluoro-3-methoxypyridin-2-amine], the IC50 [1] was 2.5 to 20 nM and the IC50 [2] was over 1000 nM.
For `COc1cc2ncc(-c3cc(Cl)c(N)nc3F)n2cc1S(=O)(=O)C(C)(C)C` [Example 75, 5-(6-(tert-butylsulfonyl)-7-methoxyimidazo[1,2-a]pyridin-3-yl)-3-chloro-6-fluoropyridin-2-amine], the IC50 [1] was 2.5 to 20 nM and the IC50 [2] was 50 to 250 nM.
`COc1cc2ncc(-c3ccc(N)c(OC)c3F)n2cc1S(=O)(=O)C(C)(C)C` [Example 76, 4-(6-(tert-butylsulfonyl)-7-methoxyimidazo[1,2-a]pyridin-3-yl)-3-fluoro-2-methoxyaniline] showed an IC50 [1, 3] of over 20 nM and an IC50 [2] of over 1000 nM.
Work on `COc1cc2ncc(-c3ccc(N(C)C)nc3F)n2cc1S(=O)(=O)C(C)(C)C` [Example 77, 5-(6-(tert-butylsulfonyl)-7-methoxyimidazo[1,2-a]pyridin-3-yl)-6-fluoro-N,N-dimethylpyridin-2-amine] yielded an IC50 [1, 3] of over 20 nM and an IC50 [2] of over 1000 nM.
`COc1cc(N)ncc1-c1cnc2cc(OC)c(S(=O)(=O)C(C)(C)C)cn12` [Example 78, 5-(6-(tert-butylsulfonyl)-7-methoxyimidazo[1,2-a]pyridin-3-yl)-4-methoxypyridin-2-amine] was tested, and the IC50 [1, 3] was over 20 nM and the IC50 [2] was over 1000 nM.
`COc1cc2ncc(-c3ccc(N)nc3OC)n2cc1S(=O)(=O)C(C)(C)C` [Example 79, 5-(6-(tert-butylsulfonyl)-7-methoxyimidazo[1,2-a]pyridin-3-yl)-6-methoxypyridin-2-amine] showed an IC50 [1, 3] of over 20 nM and an IC50 [2] of over 1000 nM.
`COc1cc2ncc(-c3cc(C#N)c(N)cc3F)n2cc1S(=O)(=O)C(C)(C)C` [Example 80, 2-amino-5-(6-(tert-butylsulfonyl)-7-methoxyimidazo[1,2-a]pyridin-3-yl)-4-fluorobenzonitrile] gave an IC50 [1] of 2.5 to 20 nM and an IC50 [2] of 250 to 1000 nM.
In the case of `COc1cc2ncc(-c3cc(F)c(N)cc3F)n2cc1S(=O)(=O)C(C)(C)C` [Example 81, 4-(6-(tert-butylsulfonyl)-7-methoxyimidazo[1,2-a]pyridin-3-yl)-2,5-difluoroaniline], the IC50 [1] is reported as 2.5 to 20 nM and the IC50 [2] is reported as 250 to 1000 nM.
`COc1cc2ncc(-c3cc(F)c(N)nc3F)n2cc1S(=O)(=O)C(C)(C)C` [Example 82, 5-(6-(tert-butylsulfonyl)-7-methoxyimidazo[1,2-a]pyridin-3-yl)-3,6-difluoropyridin-2-amine] was tested, and the IC50 [1] was 2.5 to 20 nM and the IC50 [2] was 250 to 1000 nM.
Molecule `COc1cc2ncc(-c3ccc(N)c(F)c3F)n2cc1S(=O)(=O)C(C)(C)C` [Example 83, 4-(6-(tert-butylsulfonyl)-7-methoxyimidazo[1,2-a]pyridin-3-yl)-2,3-difluoroaniline] has an IC50 [1, 3] of over 20 nM and an IC50 [2] of over 1000 nM.
`COc1cc2ncc(-c3cnc(N)c(C4CC4)c3)n2cc1S(=O)(=O)C(C)(C)C` [Example 84, 5-(6-(tert-butylsulfonyl)-7-methoxyimidazo[1,2-a]pyridin-3-yl)-3-cyclopropylpyridin-2-amine] was tested, and the IC50 [1, 3] was over 20 nM and the IC50 [2] was over 1000 nM.
With `COc1cc2ncc(-c3ccc(N)c(Cl)c3)n2cc1S(=O)(=O)C(C)(C)C` [Example 85, 4-(6-(tert-butylsulfonyl)-7-methoxyimidazo[1,2-a]pyridin-3-yl)-2-chloroaniline] the IC50 [1] was 2.5 to 20 nM and the IC50 [2] was 250 to 1000 nM.
Molecule `COc1cc2ncc(-c3ccc(N)c(Cl)c3F)n2cc1S(=O)(=O)C(C)(C)C` [Example 86, 4-(6-(tert-butylsulfonyl)-7-methoxyimidazo[1,2-a]pyridin-3-yl)-2-chloro-3-fluoroaniline] has an IC50 [1] of 2.5 to 20 nM and an IC50 [2] of over 1000 nM.
For `COc1cc(-c2cnc3cc(OC)c(S(=O)(=O)C(C)(C)C)cn23)ccc1N` [Example 87, 4-(6-(tert-butylsulfonyl)-7-methoxyimidazo[1,2-a]pyridin-3-yl)-2-methoxyaniline], the IC50 [1] was 2.5 to 20 nM and the IC50 [2] was over 1000 nM.
With `COc1cc2ncc(-c3cnc(N)c(OC(F)(F)F)c3)n2cc1S(=O)(=O)C(C)(C)C` [Example 88, 5-(6-(tert-butylsulfonyl)-7-methoxyimidazo[1,2-a]pyridin-3-yl)-3-(trifluoromethoxy) pyridin-2-amine] the IC50 [1, 3] was over 20 nM and the IC50 [2] was over 1000 nM.
`COc1cc2ncc(-c3ccc(N)c(OC(F)(F)F)c3)n2cc1S(=O)(=O)C(C)(C)C` [Example 89, 4-(6-(tert-butylsulfonyl)-7-methoxyimidazo[1,2-a]pyridin-3-yl)-2-(trifluoromethoxy)aniline] gave an IC50 [1] of 2.5 to 20 nM and an IC50 [2] of over 1000 nM.
In the case of `COc1cc(-c2cnc3cc(OC)c(S(=O)(=O)C(C)(C)C)cn23)c(F)cc1N` [Example 90, 4-(6-(tert-butylsulfonyl)-7-methoxyimidazo[1,2-a]pyridin-3-yl)-5-fluoro-2-methoxyaniline], the IC50 [1] is reported as 2.5 to 20 nM and the IC50 [2] is reported as 250 to 1000 nM.
`COc1cc2ncc(-c3ccc(N)c(C#N)c3F)n2cc1S(=O)(=O)C(C)(C)C` [Example 91, 6-amino-3-(6-(tert-butylsulfonyl)-7-methoxyimidazo[1,2-a]pyridin-3-yl)-2-fluorobenzonitrile] showed an IC50 [1] of 2.5 to 20 nM and an IC50 [2] of over 1000 nM.
`COc1cc2ncc(-c3cnc(N)c(CO)c3)n2cc1S(=O)(=O)C(C)(C)C` [Example 92, (2-amino-5-(6-(tert-butylsulfonyl)-7-methoxyimidazo[1,2-a]pyridin-3-yl)pyridin-3-yl)methanol] gave an IC50 [1, 3] of over 20 nM and an IC50 [2] of over 1000 nM.
For `COc1cc2ncc(-c3cnc(N)nc3)n2cc1S(=O)(=O)C(C)(C)C` [Example 93, 5-(6-(tert-butylsulfonyl)-7-methoxyimidazo[1,2-a]pyridin-3-yl)pyrimidin-2-amine], the IC50 [1, 3] was over 20 nM and the IC50 [2] was over 1000 nM.
Molecule `CNc1ncc(-c2cnc3cc(OC)c(S(=O)(=O)C(C)(C)C)cn23)cc1F` [Example 94, 5-(6-(tert-butylsulfonyl)-7-methoxyimidazo[1,2-a]pyridin-3-yl)-3-fluoro-N-methylpyridin-2-amine] has an IC50 [1, 3] of over 20 nM and an IC50 [2] of over 1000 nM.
In the case of `COc1cn2ncc(-c3ccc(N)c(C#N)c3)c2cc1S(=O)(=O)C(C)(C)C` [Example 95, 2-amino-5-(5-(tert-butylsulfonyl)-6-methoxypyrazolo[1,5-a]pyridin-3-yl)benzonitrile], the IC50 [1] is reported as 2.5 to 20 nM and the IC50 [2] is reported as 250 to 1000 nM.
In the case of `COc1cc2ncc(-c3cc(C)c(N)nc3F)n2cc1S(=O)(=O)C(C)(C)C` [Example 96, 5-(6-(tert-butylsulfonyl)-7-methoxyimidazo[1,2-a]pyridin-3-yl)-6-fluoro-3-methylpyridin-2-amine], the IC50 [1] is reported as 2.5 to 20 nM and the IC50 [2] is reported as 250 to 1000 nM.
`COc1cn2ncc(-c3cnc(N)c(F)c3)c2cc1S(=O)(=O)C(C)(C)C` [Example 97, 5-(5-(tert-butylsulfonyl)-6-methoxypyrazolo[1,5-a]pyridin-3-yl)-3-fluoropyridin-2-amine] was tested, and the IC50 [1] was 2.5 to 20 nM and the IC50 [2] was 250 to 1000 nM.
Work on `COc1cc2ncc(-c3cnc(N)c(C(F)F)c3)n2cc1S(=O)(=O)C(C)(C)C` [Example 98, 5-(6-(tert-butylsulfonyl)-7-methoxyimidazo[1,2-a]pyridin-3-yl)-3-(difluoromethyl)pyridin-2-amine] yielded an IC50 [1, 3] of over 20 nM and an IC50 [2] of over 1000 nM.
In the case of `COc1cc2ncc(-c3ccc(N)nc3Cl)n2cc1S(=O)(=O)C(C)(C)C` [Example 99, 5-(6-(tert-butylsulfonyl)-7-methoxyimidazo[1,2-a]pyridin-3-yl)-6-chloropyridin-2-amine], the IC50 [1, 3] is reported as over 20 nM and the IC50 [2] is reported as over 1000 nM.
`COc1cn2ncc(-c3cc(F)c(N)nc3F)c2cc1S(=O)(=O)C(C)(C)C` [Example 100, 5-(5-(tert-butylsulfonyl)-6-methoxypyrazolo[1,5-a]pyridin-3-yl)-3,6-difluoropyridin-2-amine] was tested, and the IC50 [1] was 2.5 to 20 nM and the IC50 [2] was 250 to 1000 nM.
Work on `COc1cc2ncc(-c3ccc(N4CCOCC4)nc3F)n2cc1S(=O)(=O)C(C)(C)C` [Example 101, 4-(5-(6-(tert-butylsulfonyl)-7-methoxyimidazo[1,2-a]pyridin-3-yl)-6-fluoropyridin-2-yl)morpholine] yielded an IC50 [1, 3] of over 20 nM and an IC50 [2] of over 1000 nM.
`COc1cc2ncc(-c3cc(Cl)c(N)nc3OC)n2cc1S(=O)(=O)C(C)(C)C` [Example 102, 5-(6-(tert-butylsulfonyl)-7-methoxyimidazo[1,2-a]pyridin-3-yl)-3-chloro-6-methoxypyridin-2-amine] gave an IC50 [1] of 2.5 to 20 nM and an IC50 [2] of 250 to 1000 nM.
With `COc1cc2ncc(-c3cnc(N)cn3)n2cc1S(=O)(=O)C(C)(C)C` [Example 103, 5-(6-(tert-butylsulfonyl)-7-methoxyimidazo[1,2-a]pyridin-3-yl)pyrazin-2-amine] the IC50 [1, 3] was over 20 nM and the IC50 [2] was over 1000 nM.
With `COc1cn2ncc(-c3cc(OC)c(N)nc3F)c2cc1S(=O)(=O)C(C)(C)C` [Example 104, 5-(5-(tert-butylsulfonyl)-6-methoxypyrazolo[1,5-a]pyridin-3-yl)-6-fluoro-3-methoxypyridin-2-amine] the IC50 [1] was 2.5 to 20 nM and the IC50 [2] was over 1000 nM.
In the case of `COc1cn2ncc(-c3cc(Cl)c(N)nc3F)c2cc1S(=O)(=O)C(C)(C)C` [Example 105, 5-(5-(tert-butylsulfonyl)-6-methoxypyrazolo[1,5-a]pyridin-3-yl)-3-chloro-6-fluoropyridin-2-amine], the IC50 [1] is reported as 2.5 to 20 nM and the IC50 [2] is reported as 50 to 250 nM.
